A short description of data set [1]: Reactive oxygen species (ROS) assay under simulated sunlight. Type of data set: physicochemical. Conditions: for Reactive Oxygen Species Generation Singlet oxygen / Reactive Oxygen Species Generation Superoxide: 200 µM, simulated sunlight 1 h, mean ± standard deviation (n = 3). On the procedure:
The ROS assay was designed to detect both singlet oxygen and superoxide generated from photo-irradiated chemicals. Briefly, singlet oxygen was measured in aqueous solution by spectrophotometrically monitoring the bleaching of p-nitrosodimethylaniline at 440 nm using imidazole as a selective acceptor of singlet oxygen. Samples containing the tested chemical (20 or 200 μM), p-nitrosodimethylaniline (50 μM), and imidazole (50 μM) in 20 mM sodium phosphate buffer (pH 7.4) were mixed in a tube. Each sample in 200 μL was transferred into a well of a plastic 96-well plate (clear, untreated, and flat-bottomed) and checked for precipitation under a microscope with an objective lens (×100) before light exposure. The plate was subjected to a measurement of absorbance at 440 nm using a microplate spectrophotometer. The plate was fixed in the quartz reaction container with a quartz cover and then irradiated with the simulated sunlight (ultraviolet A/B and visible light, 250 W/m^2, Suntest CPS plus, Atlas Material Testing Technology, Mount Prospect, IL, USA) for 1 h. After agitation on a plate shaker, the UV absorbance at 440 nm was measured. For the determination of superoxide, samples containing the test chemical (20 or 200 μM) and nitroblue tetrazolium (50 μM) in 20 mM sodium phosphate buffer were irradiated with the simulated sunlight for 1 h and the reduction in nitroblue tetrazolium was measured by the increase in absorbance at 560 nm in the same manner as the singlet oxygen determination. Experiments were performed in triplicate wells in three independent runs. As the final concentration, 200 μM test chemical solutions should be subjected to the ROS assay. However, when precipitation could be observed at 200 μM under the optical microscope, additional experiments should be performed under appropriate dilution (20, 50, or 100 μM).

Data set [2] in a line: PAMPA (parallel artificial membrane permeability assay). Type of data set: in vitro ADME. On the procedure:
In order to determine the passive membrane diffusion rates, the Corning Gentest Pre-coated PAMPA Plate System was used in the PAMPA test. […] The acceptor plate was then placed on top of the donor plate and incubated at 37 °C without agitation for 4 h. At the end of the incubation, the plates were separated and the solutions from each well of both the acceptor plate and the donor plate were transferred to 96-well plates and mixed with acetonitrile. The final concentrations of compound in both the donor wells and acceptor wells, as well as the concentrations of the initial donor solutions, were analyzed by LC-MS/MS. The permeability of the compound was calculated according to the previous report.
Background: PAMPA measures passive passage across an artificial lipid membrane.

Details of data set [3]: method as in PMID 18185985. The conditions noted are these: cited from earlier work.

SMILES strings stand for the structures.

This is an account of results in PMC8235661, “Photoelectric Dye, NK-5962, as a Potential Drug for Preventing Retinal Neurons from Apoptosis: Pharmacokinetic Studies Based on Review of the Evidence” (Life, 2021).

Regarding `C=C[C@H]1C[N@@]2CC[C@H]1C[C@H]2[C@H](O)c1ccnc2ccc(OC)cc12` [Quinine], in data set [1], the “Reactive Oxygen Species Generation Singlet oxygen” value is on record as 602 ± 7 ΔA440 × 1000 and the “Reactive Oxygen Species Generation Superoxide” value was 348 ± 12 ΔA560 × 1000.
Regarding `CCN1C=C\C(=C/C=C(\C=C/c2cc[n+](CC)c3ccccc23)c2cc[n+](CC)c3ccccc23)c2ccccc21.[I-].[I-]` [NK-4, 1-ethyl-4-[(1Z,3E,5E)-1-(1-ethylquinolin-1-ium-4-yl)-5-(1-ethylquinolin-4-ylidene)penta-1,3-dien-3-yl]quinolin-1-ium;iodide], in data set [1], the “phototoxicity conclusion from ROS assay” value is “less phototoxic”.
For the compound `COCCc1ccc(OCC(O)CNC(C)C)cc1` (centres unmarked) [metoprolol], the “PAMPA permeability of reference compound” value in data set [2] (reference compound at 500 μM) came to 1.5 ×10⁻⁶ cm/s.
In the case of `O=C(O)c1cc(/N=N/c2ccc(S(=O)(=O)Nc3ccccn3)cc2)ccc1O` [sulfasarazine], the “gastrointestinal absorption in human” value in data set [3] is recorded as 13%.
In the case of `COc1cc(O)c(C(=O)c2ccccc2)cc1S(=O)(=O)O` [Sulisobenzone], in data set [1], the “Reactive Oxygen Species Generation Singlet oxygen” value was “Not detected” and the “Reactive Oxygen Species Generation Superoxide” value is on record as “Not detected”.
Regarding `Cc1cc(=O)n(-c2ccccc2)n1C` [antipyrine], the Papp at 4 h, 100 μM in data set [2] (PAMPA, read-out: PAMPA permeability of reference compound) was 11 ×10⁻⁶ cm/s.
